The values below come from ChEMBL document CHEMBL1142270, “Synthesis, thermal stability, antimalarial activity of symmetrically and asymmetrically substituted tetraoxanes” (Bioorg Med Chem Lett, 2008).

In series [1] the test system is Vero. Kind of series: Cytotoxicity against african green monkey Vero cells by neutral red assay upto 16.72 uM. It counts as cell-based. The following applies: chlorocebus sabaeus.
For series [2], the system named is Plasmodium falciparum. The series is described as follows: Antimalarial activity against Plasmodium falciparum D6 in parasite LDH assay to 16.72 uM. It counts as functional, organism-based.
The test system of series [3] is Plasmodium falciparum. Kind of series: Antimalarial activity against Plasmodium falciparum W2 in parasite LDH assay to 16.72 uM. Format: functional, organism-based.
Series [4] in a line: Selectivity index, ratio of IC50 for African green monkey (Cercopithecus aethiops) Vero cells to IC50 for Plasmodium falciparum D6. It counts as functional.
Series [5] concerns Plasmodium falciparum. Kind of series: Antimalarial activity against Plasmodium falciparum D6 in parasite LDH assay. It counts as functional, organism-based.
Series [6] can be described thus: Selectivity index, ratio of IC50 for african green monkey (Cercopithecus aethiops) Vero cells to IC50 for Plasmodium falciparum W2. Format: functional.
Series [7] deals with Plasmodium falciparum. The series is described as follows: Antimalarial activity against Plasmodium falciparum W2 in parasite LDH assay. It counts as functional, organism-based.

Active and inactive are the calls of the source. No cut-off for these calls is given here.

Regarding `CCN(CC)CCCC(C)Nc1ccnc2cc(Cl)ccc12` (stereo not given) [CHLOROQUINE], in series [1], the Activity result was “Non-toxic”.
With `FC(F)(F)c1ccc(C2OOC(c3ccc(C(F)(F)F)cc3)OO2)cc1` (stereo not given), the result in series [2] and in series [3] was inactive.
Take `Clc1ccc(C2OOC3(CCCCCC3)OO2)cc1`: the “Ratio IC50” value in series [4] and in series [6] was above 1 in each case. Moreover, the Activity entry in series [1] is recorded as “Non-toxic”. Further, the IC50 in series [5] and in series [7] was 16.7 µM each time.
With `Cc1cccc(C2OOC(c3cccc(C)c3)OO2)c1` (stereo not given), the “Ratio IC50” value in series [4] is above 18.2; in series [6], above 22.7. In addition, the Activity result in series [1] is reported as “Non-toxic”. Also, the values for the IC50 in series [5] and in series [7] were 0.96 µM and 0.77 µM, respectively.
For `Clc1ccc(C2OOC3(CCCC3)OO2)cc1`, the “Ratio IC50” value in series [4] and in series [6] was above 1 each time. Further, the Activity entry in series [1] was “Non-toxic”. Also, the IC50 in series [5] and in series [7] was 16.7 µM throughout.
Turning to `Brc1ccc(C2OOC3(CCCCCC3)OO2)cc1`, the result in series [2] and in series [3] was inactive.
As for `Brc1cccc(C2OOC(c3cccc(Br)c3)OO2)c1` (stereo not given), the outcome in series [2] and in series [3] was inactive.
For the compound `Clc1cccc(C2OOC(c3cccc(Cl)c3)OO2)c1` (stereo not given), the “Ratio IC50” value in series [4] is above 11.1; in series [6], above 21.6. Further, the Activity entry in series [1] is given as “Non-toxic”. In addition, the IC50 (in general, the midpoint of a concentration-inhibition curve) was 1.37 µM in series [5] and 0.7 µM in series [7].
In the case of `c1ccc(C2OOC3(CCCCC3)OO2)cc1`, the “Ratio IC50” value in series [4] is recorded as above 9.2; in series [6] it was above 11.1. Besides, in series [1], the Activity result is “Non-toxic”. Also, the values for the IC50 in series [5] and in series [7] were 2.2 µM and 1.82 µM, respectively.
As for `Brc1ccc(C2OOC3(CCCCC3)OO2)cc1`, the results for the “Ratio IC50” value in series [4] and in series [6] were above 4 and above 2.8, respectively. Also, the Activity entry in series [1] is listed as “Non-toxic”. For the same compound, the IC50 in series [5] stood at 3.81 µM; in series [7], 5.39 µM.
As for `Brc1ccc(C2OOC3(CCCC3)OO2)cc1`, the outcome in series [2] and in series [3] was inactive.
On to `Clc1ccccc1C1OOC(c2ccccc2Cl)OO1` (stereo not given), for which the result in series [2] and in series [3] was inactive.
With `Clc1cccc(C2OOC3(CCCCC3)OO2)c1`, the “Ratio IC50” value in series [4] is above 8.2; in series [6], above 7.1. Also, the Activity entry in series [1] is on record as “Non-toxic”. For the same compound, the values for the IC50 in series [5] and in series [7] were 2.14 µM and 2.47 µM, respectively.
In the case of `Clc1ccccc1C1OOC2(CCCCC2)OO1`, the “Ratio IC50” value was above 1.3 in series [4] and above 1.9 in series [6]. Further, the Activity entry in series [1] is reported as “Non-toxic”. For the same compound, the figures for the half-inhibitory concentration (IC50) in series [5] and in series [7] were 14 µM and 9.24 µM, respectively.
With `Brc1ccccc1C1OOC(c2ccccc2Br)OO1` (stereo not given), the outcome in series [2] and in series [3] was inactive.
As for `FC(F)(F)c1cccc(C2OOC(c3cccc(C(F)(F)F)c3)OO2)c1` (stereo not given), the result in series [2] and in series [3] was inactive.
With `Clc1ccc(C2OOC3(CCCCC3)OO2)cc1`, the “Ratio IC50” value is listed as above 6.6 in series [4] and above 6.8 in series [6]. Moreover, the Activity entry in series [1] is on record as “Non-toxic”. Also, the IC50 in series [5] was 2.66 µM; in series [7], 2.59 µM.
The like results for `Cc1ccc(C2OOC(c3ccc(C)cc3)OO2)cc1` (stereo not given) were, in that order, above 11.9, above 14.9, “Non-toxic”, 1.47 µM and 1.18 µM.
In the case of `Cc1ccccc1C1OOC(c2ccccc2C)OO1` (stereo not given), the “Ratio IC50” value was above 7.1 in series [4] and above 13.6 in series [6]. Besides, the Activity entry in series [1] is on record as “Non-toxic”. Moreover, the IC50 in series [5] worked out at 2.46 µM; in series [7], 1.29 µM.
The like results for `C[C@@H]1CC[C@H]2[C@@H](C)C(=O)O[C@@H]3O[C@@]4(C)CC[C@@H]1[C@]32OO4` [ARTEMISININ] were, in that order, above 476, above 1400, “Non-toxic”, 0.035 µM and 0.015 µM.
The like results for `Clc1ccc(C2OOC(c3ccc(Cl)cc3)OO2)cc1` (stereo not given) were, in that order, above 3.4, above 4.8, “Non-toxic”, 4.47 µM and 3.19 µM.
Taken in the same sequence, the figures for `Fc1ccc(C2OOC(c3ccc(F)cc3)OO2)cc1` (stereo not given) were above 10.4, above 14.9, “Non-toxic”, 1.64 µM and 1.14 µM.
As to `Brc1ccc(C2OOC(c3ccc(Br)cc3)OO2)cc1` (stereo not given), the entries for the “Ratio IC50” value in series [4] and in series [6] were above 8.5 and above 13.6, respectively. For the same compound, the Activity result in series [1] is “Non-toxic”. Further, the IC50 was determined as 1.39 µM in series [5] and 0.67 µM in series [7].
Taken in the same sequence, the figures for `c1ccc(C2OOC3(CCCCCC3)OO2)cc1` were above 1.9, above 2.5, “Non-toxic”, 9.99 µM and 7.59 µM.
